According to ChEMBL document CHEMBL1201862, “PubChem BioAssay data set” (2004):
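Test compounds were applied to cells in 96-well plates for 48 hours at 5 doses. At the GI50, growth is halved.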 The source made the active and inactive calls. No stated cut-off is given here; in the data, active = GI50 up to about 1.1 µM and inactive = higher.

Tests used:
Experiment in all cases: DTP human tumour cell line panel, 48 h
NCI-H23 = tested on: NCI-H23
IGROV-1 = tested on: IGROV-1
T47D = tested on: T47D
ACHN = tested on: ACHN
UO-31 = tested on: UO-31
SW-620 = tested on: SW-620
HT-29 = tested on: HT-29
U-251 = tested on: U-251
EKVX = tested on: EKVX
CCRF-CEM = tested on: CCRF-CEM
PC-3 = tested on: PC-3
NCI/ADR-RES = tested on: NCI/ADR-RES
NCI-H522 = tested on: NCI-H522
SF-539 = tested on: SF-539
SF-268 = tested on: SF-268
LOX IMVI = tested on: LOX IMVI
HOP-92 = tested on: HOP-92
OVCAR-4 = tested on: OVCAR-4
SK-OV-3 = tested on: SK-OV-3
DU-145 = tested on: DU-145
RPMI-8226 = tested on: RPMI-8226
HCT-116 = tested on: HCT-116
RXF 393 = tested on: RXF 393
MDA-MB-231 = tested on: MDA-MB-231
SK-MEL-28 = tested on: SK-MEL-28
MOLT-4 = tested on: MOLT-4
NCI-H226 = tested on: NCI-H226
NCI-H460 = tested on: NCI-H460
UACC-257 = tested on: UACC-257
A549 = tested on: A549
A498 = tested on: A498
MDA-N = tested on: MDA-N
M14 = tested on: M14
CAKI-1 = tested on: CAKI-1
SNB-19 = tested on: SNB-19
K562 = tested on: K562
SN12C = tested on: SN12C
786-0 = tested on: 786-0
Malme-3M = tested on: Malme-3M
OVCAR-3 = tested on: OVCAR-3
TK-10 = tested on: TK-10
SK-MEL-5 = tested on: SK-MEL-5
COLO 205 = tested on: COLO 205
SR = tested on: SR
KM12 = tested on: KM12
MDA-MB-435 = tested on: MDA-MB-435
SF-295 = tested on: SF-295
OVCAR-5 = tested on: OVCAR-5
HOP-62 = tested on: HOP-62
HL-60 = tested on: HL-60
BT-549 = tested on: BT-549
SK-MEL-2 = tested on: SK-MEL-2
OVCAR-8 = tested on: OVCAR-8
HCT-15 = tested on: HCT-15
Hs-578T = tested on: Hs-578T
UACC-62 = tested on: UACC-62
HCC 2998 = tested on: HCC 2998
SNB-75 = tested on: SNB-75
MCF7 = tested on: MCF7

C[C@@H]1[C@@H](c2ccccc2)O[B-](c2ccccc2)(c2ccccc2)N1C
GI50 (NCI-H23): 35.6 µM (inactive) | GI50 (IGROV-1): 69 µM (inactive) | GI50 (T47D): 38.9 µM (inactive) | GI50 (ACHN): 33.1 µM (inactive) | GI50 (UO-31): 20.9 µM (inactive) | GI50 (SW-620): 50.8 µM (inactive) | GI50 (HT-29): 85.9 µM (inactive) | GI50 (U-251): > 100 µM (inactive) | GI50 (EKVX): 97.7 µM (inactive) | GI50 (CCRF-CEM): 12.9 µM (inactive) | GI50 (PC-3): 17.5 µM (inactive) | GI50 (NCI/ADR-RES): 54.5 µM (inactive) | GI50 (NCI-H522): 34.5 µM (inactive) | GI50 (SF-539): 27.3 µM (inactive) | GI50 (SF-268): 64 µM (inactive) | GI50 (LOX IMVI): 61.9 µM (inactive) | GI50 (HOP-92): 27.8 µM (inactive) | GI50 (OVCAR-4): 72.1 µM (inactive) | GI50 (SK-OV-3): 55.3 µM (inactive) | GI50 (DU-145): 63.1 µM (inactive) | GI50 (RPMI-8226): 32 µM (inactive) | GI50 (HCT-116): 32.9 µM (inactive) | GI50 (RXF 393): 37.5 µM (inactive) | GI50 (MDA-MB-231): 40.7 µM (inactive) | GI50 (SK-MEL-28): 52.1 µM (inactive) | GI50 (MOLT-4): 43.7 µM (inactive) | GI50 (NCI-H226): 36.5 µM (inactive) | GI50 (NCI-H460): 45.2 µM (inactive) | GI50 (UACC-257): 50.6 µM (inactive) | GI50 (A549): 58.6 µM (inactive) | GI50 (A498): 34.8 µM (inactive) | GI50 (MDA-N): 52 µM (inactive) | GI50 (M14): 28.4 µM (inactive) | GI50 (CAKI-1): 27.9 µM (inactive) | GI50 (SNB-19): > 100 µM (inactive) | GI50 (K562): 36.4 µM (inactive) | GI50 (SN12C): 61.5 µM (inactive) | GI50 (786-0): 65.8 µM (inactive) | GI50 (Malme-3M): 29.5 µM (inactive) | GI50 (OVCAR-3): 35.9 µM (inactive) | GI50 (TK-10): 32.8 µM (inactive) | GI50 (SK-MEL-5): 30 µM (inactive) | GI50 (COLO 205): 22.3 µM (inactive) | GI50 (SR): 21.7 µM (inactive) | GI50 (KM12): 52.1 µM (inactive) | GI50 (MDA-MB-435): 35.4 µM (inactive) | GI50 (SF-295): 62.4 µM (inactive) | GI50 (OVCAR-5): 74.3 µM (inactive) | GI50 (HOP-62): > 100 µM (inactive) | GI50 (HL-60): 15.3 µM (inactive) | GI50 (BT-549): 30.7 µM (inactive) | GI50 (SK-MEL-2): 49.5 µM (inactive) | GI50 (OVCAR-8): 72.3 µM (inactive) | GI50 (HCT-15): 40.2 µM | GI50 (Hs-578T): 33.4 µM (inactive) | GI50 (UACC-62): 41 µM (inactive)

Cn1ccc(C(=O)N2CCSC2=S)c(OCc2ccccc2)c1=O
GI50 (NCI-H23): > 100 µM (inactive) | GI50 (T47D): 66.7 µM (inactive) | GI50 (ACHN): > 100 µM (inactive) | GI50 (UO-31): 67.8 µM (inactive) | GI50 (SW-620): > 100 µM (inactive) | GI50 (HT-29): > 100 µM (inactive) | GI50 (U-251): > 100 µM (inactive) | GI50 (CCRF-CEM): 48.8 µM (inactive) | GI50 (PC-3): > 100 µM (inactive) | GI50 (NCI/ADR-RES): > 100 µM (inactive) | GI50 (NCI-H522): 39.2 µM (inactive) | GI50 (SF-268): > 100 µM (inactive) | GI50 (LOX IMVI): > 100 µM (inactive) | GI50 (HOP-92): 79.1 µM (inactive) | GI50 (OVCAR-4): > 100 µM (inactive) | GI50 (DU-145): > 100 µM (inactive) | GI50 (RPMI-8226): > 100 µM (inactive) | GI50 (HCT-116): > 100 µM (inactive) | GI50 (MDA-MB-231): > 100 µM (inactive) | GI50 (SK-MEL-28): > 100 µM (inactive) | GI50 (NCI-H226): > 100 µM (inactive) | GI50 (NCI-H460): > 100 µM (inactive) | GI50 (UACC-257): > 100 µM (inactive) | GI50 (A549): > 100 µM (inactive) | GI50 (HCC 2998): > 100 µM (inactive) | GI50 (A498): > 100 µM (inactive) | GI50 (MDA-N): > 100 µM (inactive) | GI50 (CAKI-1): 72.3 µM (inactive) | GI50 (SNB-19): > 100 µM (inactive) | GI50 (K562): > 100 µM (inactive) | GI50 (SN12C): > 100 µM (inactive) | GI50 (786-0): > 100 µM (inactive) | GI50 (SNB-75): 70.1 µM (inactive) | GI50 (Malme-3M): 87.7 µM (inactive) | GI50 (TK-10): > 100 µM (inactive) | GI50 (SK-MEL-5): > 100 µM (inactive) | GI50 (COLO 205): > 100 µM (inactive) | GI50 (SR): 26.7 µM (inactive) | GI50 (KM12): > 100 µM (inactive) | GI50 (MDA-MB-435): > 100 µM (inactive) | GI50 (HL-60): 54.8 µM (inactive) | GI50 (BT-549): > 100 µM (inactive) | GI50 (SK-MEL-2): > 100 µM (inactive) | GI50 (OVCAR-8): > 100 µM (inactive) | GI50 (HCT-15): > 100 µM | GI50 (Hs-578T): > 100 µM (inactive) | GI50 (UACC-62): > 100 µM (inactive)

N=c1c2ccccc2nc2oc3cc([N+](=O)[O-])ccc3n12
GI50 (NCI-H23): 16.6 µM (inactive) | GI50 (IGROV-1): 27.4 µM (inactive) | GI50 (T47D): < 0.01 µM (active) | GI50 (ACHN): 23.7 µM (inactive) | GI50 (UO-31): 16.6 µM (inactive) | GI50 (SW-620): 61.1 µM (inactive) | GI50 (HT-29): > 100 µM (inactive) | GI50 (U-251): 15.5 µM (inactive) | GI50 (EKVX): 2.21 µM (inactive) | GI50 (CCRF-CEM): > 100 µM (inactive) | GI50 (PC-3): 54.2 µM (inactive) | GI50 (NCI/ADR-RES): 18.6 µM (inactive) | GI50 (NCI-H522): 32.2 µM (inactive) | GI50 (SF-539): 22.3 µM (inactive) | GI50 (SF-268): 27.4 µM (inactive) | GI50 (LOX IMVI): 21 µM (inactive) | GI50 (OVCAR-4): 21.3 µM (inactive) | GI50 (SK-OV-3): 17.9 µM (inactive) | GI50 (RPMI-8226): > 100 µM (inactive) | GI50 (HCT-116): 25.6 µM (inactive) | GI50 (RXF 393): 7.38 µM (inactive) | GI50 (MDA-MB-231): 25.1 µM (inactive) | GI50 (SK-MEL-28): 74 µM (inactive) | GI50 (MOLT-4): > 100 µM (inactive) | GI50 (NCI-H226): 15 µM (inactive) | GI50 (NCI-H460): 36.9 µM (inactive) | GI50 (UACC-257): > 100 µM (inactive) | GI50 (A549): 40.1 µM (inactive) | GI50 (HCC 2998): > 100 µM (inactive) | GI50 (MDA-N): > 100 µM (inactive) | GI50 (M14): > 100 µM (inactive) | GI50 (CAKI-1): 25.4 µM (inactive) | GI50 (SNB-19): 24.9 µM (inactive) | GI50 (K562): > 100 µM (inactive) | GI50 (SN12C): 35.6 µM (inactive) | GI50 (786-0): 24.7 µM (inactive) | GI50 (SNB-75): 5.61 µM (inactive) | GI50 (Malme-3M): 25.9 µM (inactive) | GI50 (OVCAR-3): 25.7 µM (inactive) | GI50 (TK-10): 19.6 µM (inactive) | GI50 (SK-MEL-5): 71.6 µM (inactive) | GI50 (COLO 205): > 100 µM (inactive) | GI50 (SR): > 100 µM (inactive) | GI50 (KM12): > 100 µM (inactive) | GI50 (MDA-MB-435): > 100 µM (inactive) | GI50 (SF-295): 19.3 µM (inactive) | GI50 (OVCAR-5): 28.2 µM (inactive) | GI50 (HOP-62): 18.1 µM (inactive) | GI50 (BT-549): 20.2 µM (inactive) | GI50 (SK-MEL-2): 94.2 µM (inactive) | GI50 (OVCAR-8): 20.9 µM (inactive) | GI50 (MCF7): > 100 µM (inactive) | GI50 (HCT-15): > 100 µM | GI50 (Hs-578T): 4.23 µM (inactive) | GI50 (UACC-62): 47.3 µM (inactive)
